Laboratory results from US10323018B2 (Millennium Pharmaceuticals, Inc., priority 2015, dated 2019).

How the values were obtained:
hNAMPT protein = hNAMPT protein (Homo sapiens (Human), UniProt P43490); assay: NAMPT enzyme assay (TR-FRET/HTRF with BodiPY ligand); type: binding; conditions: for inhibition at 1 µM: NAMPT inhibition at compound concentration 1 μM, read-out: Percent Inhibition; for IC50: NAMPT inhibition, IC50 range class
Source text: As discussed above, the invention provides compounds that are useful as inhibitors of the enzyme NAMPT. The NAMPT inhibition of a compound of the invention can be measured using a variety of methods known in the art. For example, the ability of a compound of the invention to inhibit NAMPT enzyme activity can be measured using a homogeneous time resolved fluorescence (HTRF) assay using hNAMPT protein and anti 6His-Tb in buffer treated with a compound of the invention (or control e.g., DMSO) and BodiPY ligand. The TR-FRET signal can be measured using a high throughput microplate reader (e.g., Pherastar). Excitation can be carried out at 320 nm. The percent inhibition value at a single concentration of compound of the invention can be calculated relative to a control treated sample. A concentration response curve can be generated for each compound of the invention and the curve fitted to generate an IC50 value. […] To measure the inhibition of NAMPT activity hNAMPT protein stock and anti 6His-Tb (Cisbio; Cat. No. […]TLB) is diluted to 3× final concentration with assay buffer (50 mM Tris-HCl (pH 7.5), 1 mM DTT, 100 mM NaCl, 10 mM MgCl2, 0.005% Tween 20). To this solution is added a test compound or vehicle control (DMSO) and BodiPY ligand (structure below). The plate is shaken for 1-2 min sealed and incubated for 1 h at rt in the dark. The TR-FRET signal is measured using BMG Pherastar (Lanthascreen protocol on BMG Pherastar). Excitation was carried out at 320 nm, and the ratio of emission of BodiPY (520 nm) to terbium (486 nm) was determined. Concentration response curves are generated by calculating the excitation increase in test compound-treated samples relative to DMSO-treated controls. For the assay method described above, test compound percent inhibition values at a single concentration are calculated relative to control (DMSO) treated samples. Compound concentration response curves are fitted to generate IC50 values from those curves. One skilled in the art will appreciate that these values generated either as percentage inhibition at a single concentration or IC50 values are subject to experimental variation.

PC3 cells = assay: PC3 growth inhibition (Cell-titer glo, 72 hours); type: cell-based; conditions: Homo sapiens, PC-3, 72 h, read-out: Percent Viability, PC3 cells, compound concentration 1.667 μM, 72 hours
Procedure: The invention also provides compounds that inhibit cell growth. The ability of a compound of the invention to inhibit the growth of cells can be measured using a variety of methods known in the art. For example, the ability of a compound of the invention to inhibit the growth of PC3 cells can be measured. PC3 cells can be plated and incubated overnight under CO2. For each measurement, a compound of the invention (or vehicle e.g., DMSO) can be diluted with AIM serum free medium and added to the cell plate. The cell plate can then be incubated for 72 h under CO2. Cell-titer glo solution can be added and the plates can be incubated protected from light and the amount of luminescences can be measured. Concentration response curves can be generated by calculating the luminescence increase in test compound treated samples relative to DMSO-treated controls. Percentage remaining viability values at a single concentration can be measured. Growth inhibition (GI50) or cell viability (LD50) values can be determined from thoses curves. In one embodiment, compounds of the invention have a percent viability in PC3 line @ 1.667 uM of <1%. In one embodiment, compounds of the invention have a percent viability in PC3 line @ 1.667 uM of <2%. In one embodiment, compounds of the invention have a percent viability in PC3 line @ 1.667 uM of <3%. In one embodiment, compounds of the invention have a percent viability in PC3 line @ 1.667 uM of <4%. In one embodiment, compounds of the invention have a percent viability in PC3 line @ 1.667 uM of <5%. In one embodiment, compounds of the invention have a percent viability in PC3 line @ 1.667 uM of <10%. In one embodiment, compounds of the invention have a percent viability in PC3 line @ 1.667 uM of <50%.
To measure PC3 growth inhibition, PC3 cells that were maintained in RPMI1640 growth medium (Life Technologies; Cat. No. 11875) at 37° C. under 5% CO2 are trypsinized and diluted at a density of 8×10^4 cells/ml, 25 ul per well of cells and plated in 384-well black tissue culture plate. The cells are incubated overnight at 37° C. under 5% CO2. For each measurement, a test compound or vehicle DMSO control is diluted with AIM serum free medium and added to the cell plate. The cell plate is incubated for 72 hours at 37° C. under 5% CO2. 25 μl Cell-titer glo solution (Promega; Cat. No. G8462) is added and the cell plates are incubated for 10 minutes protected from light. The luminescence is measured. Concentration response curves are generated by calculating the luminescence increase in test compound-treated samples relative to DMSO-treated controls. Percentage remaining viability values at a single concentration, growth inhibition (GI50) or cell viability (LD50) values are determined from those curves. One skilled in the art will appreciate that these values are subject to experimental variation.

hNAMPT protein, sequence (P43490 whole entry): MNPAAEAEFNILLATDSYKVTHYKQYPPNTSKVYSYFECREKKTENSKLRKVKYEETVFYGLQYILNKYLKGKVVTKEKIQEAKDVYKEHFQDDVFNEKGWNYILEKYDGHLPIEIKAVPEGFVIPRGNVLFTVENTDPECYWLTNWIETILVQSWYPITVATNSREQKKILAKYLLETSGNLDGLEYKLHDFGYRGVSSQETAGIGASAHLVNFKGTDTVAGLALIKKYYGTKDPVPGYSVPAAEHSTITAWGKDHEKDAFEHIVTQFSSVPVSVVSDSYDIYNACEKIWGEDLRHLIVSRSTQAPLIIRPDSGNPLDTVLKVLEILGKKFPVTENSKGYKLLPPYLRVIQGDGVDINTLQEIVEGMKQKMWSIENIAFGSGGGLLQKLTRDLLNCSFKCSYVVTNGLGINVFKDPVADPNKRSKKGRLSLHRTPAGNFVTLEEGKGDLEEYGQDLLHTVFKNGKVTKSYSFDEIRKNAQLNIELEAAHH

Row | SMILES | inhibition at 1 µM (hNAMPT protein) [%] | IC50 (hNAMPT protein) [µM] | viability at 1.667 µM (PC3 cells) [%]
1 | CCOc1cc(-c2cc(OC)ncc2F)nc2cc(C(=O)NCc3nc4cnccc4[nH]3)ccc12 [Compound I-188, 4-ethoxy-2-(5-fluoro-2-methoxypyridin-4-yl)-N-(1H-imidazo[4,5-c]pyridin-2-ylmethyl)quinoline-7-carboxamide] | 99 | < 0.01 | 3
2 | Cc1cc(-c2cc(-c3ccc(F)cc3)c3ccc(C(=O)NCCCc4nnc[nH]4)cc3n2)ccn1 [Compound I-157, N-(3-(4H-1,2,4-triazol-3-yl)propyl)-4-(4-fluorophenyl)-2-(2-methylpyridin-4-yl)quinoline-7-carboxamide] | 89 | 0.05 to 0.1 | 5
3 | CCCc1cc(-c2ccc(F)cc2)nc2cc(C(=O)NCCCc3ncn[nH]3)ccc12 [Compound I-171, 2-(4-fluorophenyl)-4-propyl-N-[3-(4H-1,2,4-triazol-3-yl)propyl]quinoline-7-carboxamide] | 97 | 0.01 to 0.05 | 2
4 | CCOc1cc(-c2ccc(OC)nc2)nc2cc(C(=O)NCCCc3[nH]nnc3C)ccc12 [Compound I-93, 4-ethoxy-2-(6-methoxypyridin-3-yl)-N-[3-(4-methyl-1H-1,2,3-triazol-5-yl)propyl]quinoline-7-carboxamide] | 99 | 0.01 to 0.05 | 2
5 | CCOc1cc(-c2cccnc2OC)nc2cc(C(=O)NCCCc3ccn[nH]3)ccc12 [Compound I-150, 4-ethoxy-2-(2-methoxypyridin-3-yl)-N-[3-(1H-pyrazol-5-yl)propyl]quinoline-7-carboxamide] | 95 | 0.01 to 0.05 | 2
6 | CCOc1cc(-c2cc(F)ccc2OC)nc2cc(C(=O)NCCc3nnc[nH]3)ccc12 [Compound I-182, 4-ethoxy-2-(5-fluoro-2-methoxyphenyl)-N-[2-(4H-1,2,4-triazol-3-yl)ethyl]quinoline-7-carboxamide] | 77 | > 0.1 | 5
7 | CCOc1cc(-c2ccc(F)cc2)nc2cc(C(=O)NCCCc3nnc(N)[nH]3)ccc12 [Compound I-220, N-[3-(5-amino-4H-1,2,4-triazol-3-yl)propyl]-4-ethoxy-2-(4-fluorophenyl)quinoline-7-carboxamide] | 92 | 0.05 to 0.1 | 2
8 | CCOc1cc(-c2ccc(C(F)(F)F)nc2)nc2cc(C(=O)NCCCc3nnc[nH]3)ccc12 [Compound I-217, 4-ethoxy-N-[3-(4H-1,2,4-triazol-3-yl)propyl]-2-[6-(trifluoromethyl)pyridin-3-yl]quinoline-7-carboxamide] | 94 | 0.01 to 0.05 | 2
9 | CCOc1cc(-c2ccc(Cl)s2)nc2cc(C(=O)NCCc3nnc[nH]3)ccc12 [Compound I-177, 2-(5-chloro-2-thienyl)-4-ethoxy-N-[2-(4H-1,2,4-triazol-3-yl)ethyl]quinoline-7-carboxamide] | 97 | 0.01 to 0.05 | 3
10 | CCOc1cc(-c2ccc(F)cc2)nc2cc(C(=O)NCC3CC3c3ncc[nH]3)ccc12 (single isomer, unassigned) [Compound I-50, 4-Ethoxy-2-(4-fluorophenyl)-N-{[trans-(1,2)-2-(1H-imidazol-2-yl)cyclopropyl]methyl}quinoline-7-carboxamide] | 99 | < 0.01 | 3
11 | CCOc1cc(-c2ccc(C)nc2OC)nc2cc(C(=O)NCCc3c[nH]nc3C)ccc12 [Compound I-92, 4-ethoxy-2-(2-methoxy-6-methylpyridin-3-yl)-N-[2-(3-methyl-1H-pyrazol-4-yl)ethyl]quinoline-7-carboxamide] | 95 | 0.01 to 0.05 | 2
12 | CCOc1cc(-c2ccc(OC)nc2)nc2cc(C(=O)NCCCc3ccn[nH]3)ccc12 [Compound I-154, 4-ethoxy-2-(6-methoxypyridin-3-yl)-N-[3-(1H-pyrazol-5-yl)propyl]quinoline-7-carboxamide] | 96 | 0.01 to 0.05 | 3
13 | CCOc1cc(-c2ccc(Cl)s2)nc2cc(C(=O)NCCc3cnn[nH]3)ccc12 [Compound I-176, 2-(5-chloro-2-thienyl)-4-ethoxy-N-[2-(1H-1,2,3-triazol-5-yl)ethyl]quinoline-7-carboxamide] | 99 | 0.01 to 0.05 | 4
14 | CCOc1cc(-c2cc(OC)ncc2F)nc2cc(C(=O)NCCCc3[nH]nnc3C)ccc12 [Compound I-68, 4-ethoxy-2-(5-fluoro-2-methoxypyridin-4-yl)-N-[3-(4-methyl-1H-1,2,3-triazol-5-yl)propyl]quinoline-7-carboxamide] | 92 | 0.01 to 0.05 | 1
15 | CCOc1cc(-c2ccc(F)cc2)nc2cc(C(=O)N[C@H]3C[C@@H](c4nnc[nH]4)C3)ccc12 [Compound I-222, 4-ethoxy-2-(4-fluorophenyl)-N-[cis-3-(4H-1,2,4-triazol-3-yl)cyclobutyl]quinoline-7-carboxamide] | 96 | 0.01 to 0.05 | 4
16 | CCOc1cc(-c2ccc(F)cc2OC)nc2cc(C(=O)NCCCc3nnc[nH]3)ccc12 [Compound I-165, 4-ethoxy-2-(4-fluoro-2-methoxyphenyl)-N-[3-(4H-1,2,4-triazol-3-yl)propyl]quinoline-7-carboxamide] | 99 | 0.01 to 0.05 | 1
17 | CC(C)Oc1nc(-c2ccc(F)cc2)nc2cc(C(=O)NCCCc3ncc[nH]3)ccc12 [Compound I-36, 2-(4-fluorophenyl)-N-[3-(1H-imidazol-2-yl)propyl]-4-isopropoxyquinazoline-7-carboxamide] | > 99 | < 0.01 | 2
18 | COCCOc1cc(-c2ccc(F)cc2)nc2cc(C(=O)NCCCc3cc[nH]n3)ccc12 [Compound I-120, 2-(4-fluorophenyl)-4-(2-methoxyethoxy)-N-[3-(1H-pyrazol-3-yl)propyl]quinoline-7-carboxamide] | 94 | 0.01 to 0.05 | 2
19 | CC(C)(C)OCc1nc(-c2ccc(Cl)cc2)nc2cc(C(=O)NCCCc3ncc[nH]3)ccc12 [Compound I-30, 4-(tert-butoxymethyl)-2-(4-chlorophenyl)-N-[3-(1H-imidazol-2-yl)propyl]quinazoline-7-carboxamide] | 91 | 0.05 to 0.1 | 1
